This is an account of results in patent US20150087673A1, “METHODS FOR USING AND BIOMARKERS FOR AMPK-ACTIVATING COMPOUNDS” (RIGEL PHARMACEUTICALS, INC., priority 2013, published 2015).

The assay relates to AMPK. Nature of the assay: AMPK activation assay (enzyme-linked immunosorbent assay). It is filed as cell-based. Put shortly:
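Kit-based immunoassay; compounds screened as activators; standard reagents and protocol.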
As to `N#Cc1ccc(Oc2ccc(NC(=O)c3ccc(C(=O)N4CCC(Oc5ccc(S(F)(F)(F)(F)F)cc5)CC4)nc3)cn2)cc1` [Compound 497, N-(6-(4-cyanophenoxy)pyridin-3-yl)-6-(4-(4-(pentafluorosulfanyl)phenoxy)piperidine-1-carbonyl)nicotinamide], the EC50 (as a rule, the concentration that produces a half-maximal response) is under 500 nM.
The figure for `COc1ccc(OC2CCN(C(=O)c3ccc(C(=O)NC4CCN(Cc5ccc(C#N)cc5)CC4)cn3)CC2)c(NC(C)=O)c1` [Compound 383, 6-(4-(2-acetamido-4-methoxyphenoxy)piperidine-1-carbonyl)-N-(1-(4-cyanobenzyl)piperidin-4-yl)nicotinamide] is over 10000 nM.
The compound `COc1ccc(C(=O)N2CCN(C(=O)c3ccc(C(=O)NC4CCN(Cc5ccc(C#N)cc5)CC4)nc3)CC2)cc1` [Compound 77, N-(1-(4-cyanobenzyl)piperidin-4-yl)-5-(4-(4-methoxybenzoyl)piperazine-1-carbonyl)picolinamide] showed a concentration for a half-maximal effect (EC50) of under 500 nM.
Regarding `CC(=O)Nc1ccc(OC2CCN(C(=O)c3ccc(C(=O)NC4CCN(Cc5ccc(C#N)cc5)CC4)cn3)CC2)cc1` [Compound 366, 6-(4-(4-acetamidophenoxy)piperidine-1-carbonyl)-N-(1-(4-cyanobenzyl)piperidin-4-yl)nicotinamide], the EC50 was under 500 nM.
Under `COc1ccc(CN2CCC(NC(=O)c3ccc(C(=O)N4CCC(C(=O)c5ccc(S(C)(=O)=O)cc5)CC4)cn3)CC2)cc1` [Compound 234, N-(1-(4-methoxybenzyl)piperidin-4-yl)-5-(4-(4-(methylsulfonyl)benzoyl)piperidine-1-carbonyl)picolinamide] stands under 500 nM; under `O=C(NC1CCN(Cc2ccc(N3CCCC3)cc2)CC1)c1ccc(C(=O)N2CCC(Oc3ccc(F)cc3)CC2)cn1` [Compound 196, 5-(4-(4-fluorophenoxy)piperidine-1-carbonyl)-N-(1-(4-(pyrrolidin-1-yl)benzyl)piperidin-4-yl)picolinamide], under 500 nM.
Compound `COc1cc(C#N)ccc1OC1CCN(C(=O)c2ccc(C(=O)NC3CCN(Cc4ccc(C#N)cc4)CC3)nc2)CC1` [Compound 66, 5-(4-(4-cyano-2-methoxyphenoxy)piperidine-1-carbonyl)-N-(1-(4-cyanobenzyl)piperidin-4-yl)picolinamide] gave a 50% effective concentration (EC50) of under 500 nM.
Consider `NC(=O)c1ccc(CN2CCC(NC(=O)c3ccc(C(=O)N4CCN(Cc5ccc(F)cc5)CC4)cn3)CC2)cc1` [Compound 201, N-(1-(4-carbamoylbenzyl)piperidin-4-yl)-5-(4-(4-fluorobenzyl)piperazine-1-carbonyl)picolinamide], for which the EC50 was 500 to 1000 nM.
As for `COc1ccc(N2CCC(NC(=O)c3ccc(C(=O)N4CCN(Cc5ccc(F)cc5)CC4)nc3)CC2)cc1` [Compound 405, 6-(4-(4-fluorobenzyl)piperazine-1-carbonyl)-N-(1-(4-methoxyphenyl)piperidin-4-yl) nicotinamide], the half-maximal effective concentration (EC50) was under 500 nM.
For the compound `CS(=O)(=O)c1ccc(CN2CCC(NC(=O)c3ccc(C(=O)N4CCC(Oc5ccc(C#N)cc5)CC4)nc3)CC2)cc1` [Compound 214, 6-(4-(4-cyanophenoxy)piperidine-1-carbonyl)-N-(1-(4-(methylsulfonyl)benzyl)piperidin-4-yl)nicotinamide], the 50% effective concentration (EC50) is over 10000 nM.
In turn, `N#Cc1ccc(-c2nnc3n2CCN(C(=O)c2ccc(C(=O)NC4CCN(Cc5cc(F)cc(F)c5)CC4)nc2)C3)cc1` [Compound 314, 5-(3-(4-cyanophenyl)-5,6,7,8-tetrahydro-[1,2,4]triazolo[4,3-a]pyrazine-7-carbonyl)-N-(1-(3,5-difluorobenzyl)piperidin-4-yl)picolinamide] returned an EC50 of over 10000 nM.
In the case of `CS(=O)(=O)c1ccc(C(=O)C2CCN(C(=O)c3ccc(C(=O)NC4CCN(Cc5ccc(F)cc5)CC4)nc3)CC2)cc1` [Compound 225, N-(1-(4-fluorobenzyl)piperidin-4-yl)-5-(4-(4-(methylsulfonyl)benzoyl)piperidine-1-carbonyl)picolinamide], the EC50 is under 500 nM.
`COc1ccc(C(=O)C2CCN(C(=O)c3ccc(C(=O)N[C@@H]4CCN(Cc5ccc(C#N)cc5)C[C@H]4F)cn3)CC2)cc1` [Compound 452, N-((3R,4R)-1-(4-cyanobenzyl)-3-fluoropiperidin-4-yl)-6-(4-(4-methoxybenzoyl)piperidine-1-carbonyl)nicotinamide] came in with a 50% effective concentration (EC50) of under 500 nM.
`CC(=O)c1ccc(OC2CCN(C(=O)c3ccc(C(=O)NC4CCN(Cc5ccc(C#N)cc5)CC4)cn3)CC2)cc1` [Compound 390, 6-(4-(4-acetylphenoxy)piperidine-1-carbonyl)-N-(1-(4-cyanobenzyl)piperidin-4-yl)nicotinamide] yielded an EC50 of under 500 nM.
In the case of `N#Cc1ccc(CN2CCC(NC(=O)c3ccc(C(=O)N4CCC(C(=O)c5ccc(N=[N+]=[N-])cc5)CC4)nc3)CC2)cc1` [Compound 240, 6-(4-(4-azidobenzoyl)piperidine-1-carbonyl)-N-(1-(4-cyanobenzyl)piperidin-4-yl)nicotinamide], the EC50 is under 500 nM.
The compound `CC(=O)Nc1ccc(OC2CCN(C(=O)c3ccc(C(=O)NC4CCN(Cc5cccc(OC(F)(F)F)c5)CC4)cn3)CC2)cc1` [Compound 428, 6-(4-(4-acetamidophenoxy)piperidine-1-carbonyl)-N-(1-(3-(trifluoromethoxy)benzyl)piperidin-4-yl)nicotinamide] had an EC50 of 500 to 1000 nM.
With `O=C(N[C@H]1CC[C@@H](Oc2ccc(F)cc2)CC1)c1ccc(C(=O)N2CCC(C(=O)c3ccc(F)cc3)CC2)cn1` [Compound 304, 5-(4-(4-fluorobenzoyl)piperidine-1-carbonyl)-N-((cis)-4-(4-fluorophenoxy)cyclohexyl)picolinamide], the EC50 was under 500 nM.
On to `O=C(NC1CCN(Cc2cccc(OC(F)(F)F)c2)CC1)c1ccc(C(=O)N2CCC(C(=O)c3ccc(N4CCCC4)cc3)CC2)nc1` [Compound 441, 6-(4-(4-(pyrrolidin-1-yl)benzoyl)piperidine-1-carbonyl)-N-(1-(3-(trifluoromethoxy)benzyl)piperidin-4-yl)nicotinamide], for which the 50% effective concentration (EC50) was under 500 nM.
`Cc1ccc(CC2CCN(C(=O)c3ccc(C(=O)NC4CCN(Cc5ccc(C#N)cc5)CC4)nc3)CC2)cc1` [Compound 145, N-(1-(4-cyanobenzyl)piperidin-4-yl)-5-(4-(4-methylbenzyl)piperidine-1-carbonyl)picolinamide] showed an EC50 of under 500 nM.
`Cc1ccc(Oc2ccc(NC(=O)c3ccc(C(=O)N4CCN(Cc5ccc(F)cc5)CC4)cn3)cc2)cc1` [Compound 53, 5-(4-(4-fluorobenzyl)piperazine-1-carbonyl)-N-(4-(4-methylphenoxy)phenyl)picolinamide] registered an EC50 of under 500 nM.
Turning to `N#Cc1ccc(OC2CCN(C(=O)c3ccc(C(=O)NC4CCN(Cc5cc(F)cc(F)c5)CC4)cn3)CC2)cc1` [Compound 322, 6-(4-(4-cyanophenoxy)piperidine-1-carbonyl)-N-(1-(3,5-difluorobenzyl)piperidin-4-yl)nicotinamide], the concentration giving a half-maximal response (EC50) was under 500 nM.
On to `N#Cc1ccc(OC2CCN(C(=O)c3ccc(C(=O)NC4CCN(Cc5ccc(OC(F)(F)F)cc5)CC4)cn3)CC2)cc1` [Compound 338, 6-(4-(4-cyanophenoxy)piperidine-1-carbonyl)-N-(1-(4-(trifluoromethoxy)benzyl)piperidin-4-yl)nicotinamide], for which the EC50 was under 500 nM.
Under `COc1ccc(OC2CCN(C(=O)c3ccc(C(=O)NC4CCN(Cc5ccc(C#N)cc5)CC4)cn3)CC2)c(N(C)C)c1` [Compound 385, N-(1-(4-cyanobenzyl)piperidin-4-yl)-6-(4-(2-(dimethylamino)-4-methoxyphenoxy)piperidine-1-carbonyl)nicotinamide] stands over 10000 nM.
In turn, `CN1CCN(c2ccc(C(=O)C3CCN(C(=O)c4cnc(C(=O)NC5CCN(Cc6ccc(C#N)cc6)CC5)cn4)CC3)cc2)CC1` [Compound 220, N-(1-(4-cyanobenzyl)piperidin-4-yl)-5-(4-(4-(4-methylpiperazin-1-yl)benzoyl)piperidine-1-carbonyl)pyrazine-2-carboxamide] came in with a concentration giving a half-maximal response (EC50) of under 500 nM.
In turn, `O=C(Nc1ccc(Oc2ccc(F)cc2)nc1)c1ccc(C(=O)N2CCC(F)(C(=O)c3ccc(F)cc3)CC2)cn1` [Compound 67, 5-(4-(4-fluoro-4-fluorobenzoyl)piperidine-1-carbonyl)-N-(6-(4-fluorophenoxy)pyridin-3-yl)picolinamide] yielded a concentration for a half-maximal effect (EC50) of under 500 nM.
As for `COc1ccc(CN2CCC(NC(=O)c3ccc(C(=O)N4CCC(Oc5ccc(NC(C)=O)cc5)CC4)nc3)CC2)cc1` [Compound 407, 6-(4-(4-acetamidophenoxy)piperidine-1-carbonyl)-N-(1-(4-methoxybenzyl)piperidin-4-yl) nicotinamide], the EC50 is under 500 nM.
As for `O=C(Nc1ccc(Oc2ccc(F)cc2)nc1)c1ccc(C(=O)N2CCC(Oc3ccc(C(=O)C4CC4)cc3)CC2)nc1` [Compound 457, 6-(4-(4-(cyclopropanecarbonyl)phenoxy)piperidine-1-carbonyl)-N-(6-(4-fluorophenoxy)pyridin-3-yl)nicotinamide], the concentration giving a half-maximal response (EC50) was under 500 nM.
The figure for `O=C(NC1CCN(Cc2ccccc2)CC1)c1ccc(C(=O)NC2CCN(Cc3ccccc3)CC2)nc1` [Compound 264, N2,N5-bis(1-benzylpiperidin-4-yl)pyridine-2,5-dicarboxamide] is 5000 to 10000 nM.
`O=C(NC1CCN(Cc2ccc(F)cc2)CC1)c1cccc(C(=O)NC2CCN(Cc3ccc(F)cc3)CC2)n1` [Compound 87, N2,N6-bis(1-(4-fluorobenzyl)piperidin-4-yl)pyridine-2,6-dicarboxamide]: the EC50 lay in the range of 1000 to 5000 nM.
In the case of `CC(=O)c1ccc(Oc2ccc(NC(=O)c3ccc(C(=O)N4CCC(C(=O)c5ccc(F)cc5F)CC4)nc3)cn2)cc1` [Compound 464, N-(6-(4-acetylphenoxy)pyridin-3-yl)-6-(4-(2,4-difluorobenzoyl)piperidine-1-carbonyl)nicotinamide], the EC50 is under 500 nM.
In the case of `COc1ccc(C(=O)C2CCN(C(=O)c3ccc(C(=O)N[C@H]4CC[C@@H](Oc5cc(F)cc(F)c5)CC4)nc3)CC2)cc1` [Compound 300, N-((cis)-4-(3,5-difluorophenoxy)cyclohexyl)-5-(4-(4-methoxybenzoyl)piperidine-1-carbonyl)picolinamide], the EC50 is under 500 nM.
